Source: patent publication US8921382B2, “Thiazolo[5,4-d] pyrimidines and their use as agrochemicals” (Dow AgroSciences, LLC., priority 2010, dated 2014)

Columns and labels:
Format in all cases: in vivo
[1] = test system: Puccinia recondita tritici; assay: Leaf Rust of Wheat foliar spray test, inoculated one day after treatment; details: wheat plants, read-out: Activity against Fungal Diseases PUCCRT (percent disease control); for pest or weed control at 200 ppm: applied to foliage at 200 ppm; for pest or weed control at 3 ppm: Tested at 3 ppm
Method: (§1) Fungicide activity data are the level (in percent) at which the given disease was controlled when the given compound was applied to the foliage of the plants at 200 ppm. In a few cases (noted in the table) the compound was applied to the plants at 25 ppm or 3 ppm. The plants were inoculated with the fungus one day after treatment. ***=80-100% control; **=50-79% control; *=0-49% control. […] The activity of the compounds as effective fungicides was determined by applying the compounds to plants and observing control of fungal disease. […] All plants were inoculated with spores of the fungus the day after treatment, then incubated in an environment conducive to disease development. Disease severity was evaluated 4 to 25 days (d) later, depending on the speed of disease development. The following experiments were performed in the laboratory to determine the fungicidal efficacy of the compounds of the invention. […] Each pot contained 3-8 seedlings. These plants were sprayed until wet with the formulated test compounds. On the following day, the leaves were inoculated with an aqueous spore suspension of Puccinia recondita tritici and the plants were kept in high humidity overnight to permit spores to germinate and infect the leaf. The plants were then transferred to a greenhouse until disease developed on untreated control plants. […] The effectiveness of the test compounds at controlling disease when sprayed on leaves was determined by assessing the severity of disease on treated plants, then converting the severity to percent control based on the level of disease on untreated, inoculated plants.

Pyricularia oryzae = assay: whole plant or invertebrate; details: foliar, read-out: Activity against Fungal Diseases PYRIOR (percent disease control)
Septoria tritici = assay: Septoria Blotch of Wheat foliar spray test, inoculated one day after treatment; details: Zymoseptoria tritici, wheat plants, read-out: Activity against Fungal Diseases SEPTTR (percent disease control); for pest or weed control at 25 ppm: Tested at 25 ppm; for pest or weed control at 200 ppm: applied to foliage at 200 ppm
Method: as §1, with “3-10” for “3-8”, “compound.” for “compounds.”, “Septoria” for “Puccinia recondita”, “(one day in a dark dew chamber followed by two days in a lighted dew chamber)” for “overnight”

SMILES | pest or weed control at 200 ppm [1] | pest or weed control at 200 ppm (Pyricularia oryzae) | pest or weed control at 25 ppm (Septoria tritici) | pest or weed control at 3 ppm [1] | pest or weed control at 200 ppm (Septoria tritici)
COc1ccc(C(C)Nc2ncnc3scnc23)cc1 (stereo not shown) [Compound 1, [1-(4-Methoxyphenyl)-ethyl]-thiazolo[5,4-d]pyrimidin-7-yl-amine] | 80 to 100% | 80 to 100% | – | – | –
N#Cc1ccnc(Oc2ccc(CCNc3ncnc4scnc34)cc2)c1 [Compound 2, 2-{4-[2-(thiazolo[5,4-d]pyrimidin-7-ylamino)-ethyl]-phenoxy}-isonicotinonitrile] | 80 to 100% | 80 to 100% | 50 to 79% | – | –
Oc1ccc(CCNc2ncnc3scnc23)cc1 [Compound 3, 4-[2-(thiazolo[5,4-d]pyrimidin-7-ylamino)-ethyl]-phenol] | 0 to 49% | 0 to 49% | 0 to 49% | – | –
FC(F)(F)COc1ccc(CCNc2ncnc3scnc23)cn1 [Compound 4, thiazolo[5,4-d]pyrimidin-7-yl-{2-[6-(2,2,2-trifluoroethoxy)-pyridin-3-yl]-ethyl}-amine] | 80 to 100% | 80 to 100% | 0 to 49% | – | –
Fc1nc(F)c(F)c(Oc2ccc(CCNc3ncnc4scnc34)cc2)c1F [Compound 5, {2-[4-(2,3,5,6-tetrafluoropyridin-4-yloxy)-phenyl]-ethyl}-thiazolo[5,4-d]pyrimidin-7-ylamine] | – | – | 0 to 49% | 80 to 100% | –
CC(Cc1ccc(Oc2c(F)cnc(C(F)(F)F)c2F)cc1)Nc1ncnc2scnc12 (stereo not shown) [Compound 14, {2-[4-(3,5-Difluoro-2-trifluoromethylpyridin-4-yloxy)-phenyl]-1-methyl-ethyl}-thiazolo[5,4-d]pyrimidin-7-ylamine] | – | – | 80 to 100% | 0 to 49% | –
COc1cc(CCNc2ncnc3scnc23)ccc1Oc1cc(C(F)(F)F)ccn1 [Compound 17, {2-[3-methoxy-4-(4-trifluoromethylpyridin-2-yloxy)-phenyl]-ethyl}-thiazolo[5,4-d]pyrimidin-7-ylamine] | – | – | 80 to 100% | 80 to 100% | –
COc1ccc(CCNc2ncnc3scnc23)cc1C [Compound 19, [2-(4-methoxy-3-methylphenyl)-ethyl]-thiazolo[5,4-d]pyrimidin-7-ylamine] | 80 to 100% | – | – | – | 50 to 79%
Cc1cc(CCNc2ncnc3scnc23)ccc1O [Compound 20, 2-methyl-4-[2-(thiazolo[5,4-d]pyrimidin-7-ylamino)-ethyl]-phenol] | 0 to 49% | – | – | – | 0 to 49%
COc1cc(CCNc2ncnc3scnc23)ccc1Oc1cnccc1C(F)(F)F [Compound 29, {2-[3-methoxy-4-(4-trifluoromethylpyridin-3-yloxy)-phenyl]-ethyl}-thiazolo[5,4-d]pyrimidin-7-ylamine] | – | – | 50 to 79% | 80 to 100% | –
Cc1cc(CCN(c2nc(C(F)(F)F)c(Cl)s2)c2ncnc3scnc23)ccc1Oc1nc(C(F)(F)F)c(Cl)s1 [Compound 45, (5-chloro-4-trifluoromethylthiazol-2-yl)-{2-[4-(5-chloro-4-trifluoromethylthiazol-2-yloxy)-3-methylphenyl]-ethyl}-thiazolo[5,4-d]pyrimidin-7-ylamine] | – | – | 0 to 49% | 0 to 49% | –
Cc1cc(CCNc2ncnc3scnc23)ccc1Oc1ccncc1C(F)(F)F [Compound 47, {2-[3-methyl-4-(3-trifluoromethylpyridin-4-yloxy)-phenyl]-ethyl}-thiazolo[5,4-d]pyrimidin-7-ylamine] | 80 to 100% | 80 to 100% | – | – | 80 to 100%
COc1cc(CCNc2ncnc3scnc23)ccc1Oc1c(Cl)cnc(C(F)(F)F)c1Cl [Compound 48, {2-[4-(3,5-dichloro-2-trifluoromethylpyridin-4-yloxy)-3-methoxyphenyl]-ethyl}-thiazolo[5,4-d]pyrimidin-7-ylamine] | 80 to 100% | 80 to 100% | – | – | 80 to 100%
FC(F)(F)c1ccc(Oc2ccc(CCNc3ncnc4scnc34)cc2)nc1 [Compound 50, thiazolo[5,4-d]pyrimidin-7-yl-{2-[4-(5-trifluoromethylpyridin-2-yloxy)-phenyl]-ethyl}-amine] | – | – | 80 to 100% | 80 to 100% | –
COc1cc(CCNc2ncnc3scnc23)ccc1Oc1ccc(C(F)(F)F)cn1 [Compound 51, {2-[3-methoxy-4-(5-trifluoromethylpyridin-2-yloxy)-phenyl]-ethyl}-thiazolo[5,4-d]pyrimidin-7-ylamine] | – | – | 80 to 100% | 80 to 100% | –
COc1cc(CCNc2ncnc3scnc23)ccc1Oc1cc(C(F)(F)F)ncn1 [Compound 54, {2-[3-methoxy-4-(6-trifluoromethylpyrimidin-4-yloxy)-phenyl]-ethyl}-thiazolo[5,4-d]pyrimidin-7-ylamine] | 80 to 100% | – | – | – | 80 to 100%
COc1ccc(CCNc2ncnc3scnc23)c(F)c1 [Compound 55, [2-(2-fluoro-4-methoxyphenyl)-ethyl]-thiazolo[5,4-d]pyrimidin-7-ylamine] | 80 to 100% | – | – | – | 0 to 49%
COc1ccc(CCNc2ncnc3scnc23)c(C)c1 [Compound 56, [2-(4-methoxy-2-methylphenyl)-ethyl]-thiazolo[5,4-d]pyrimidin-7-ylamine] | 0 to 49% | – | – | – | 50 to 79%
Cc1cc(O)ccc1CCNc1ncnc2scnc12 [Compound 57, 3-methyl-4-[2-(thiazolo[5,4-d]pyrimidin-7-ylamino)-ethyl]-phenol] | 0 to 49% | – | – | – | 0 to 49%
Oc1ccc(CCNc2ncnc3scnc23)c(F)c1 [Compound 58, 3-fluoro-4-[2-(thiazolo[5,4-d]pyrimidin-7-ylamino)-ethyl]phenol] | 0 to 49% | – | – | – | 0 to 49%
Fc1cc(Oc2cc(C(F)(F)F)ccn2)ccc1CCNc1ncnc2scnc12 [Compound 60, {2-[2-fluoro-4-(4-trifluoromethylpyridin-2-yloxy)-phenyl]-ethyl}-thiazolo[5,4-d]pyrimidin-7-ylamine] | 80 to 100% | – | – | – | 80 to 100%
Fc1cc(Oc2cc(C(F)(F)F)ncn2)ccc1CCNc1ncnc2scnc12 [Compound 63, {2-[2-fluoro-4-(6-trifluoromethylpyrimidin-4-yloxy)-phenyl]-ethyl}-thiazolo[5,4-d]pyrimidin-7-ylamine] | 80 to 100% | – | – | – | 80 to 100%
